Counter-ions that a name gives are not always drawn.
Biological target: T1, YAP-TEAD interaction (Homo sapiens, UniProt P28347)
T1 construct: expressed in transfected cells; host or cells: HEK293 GripTite 293 MSR (Invitrogen R795-07)
Assay: Cell-based TEAD-GAL4 transactivation assay (luciferase reporter)
Details: HEK293 cells transfected with TEAD1-Gal4, YAP mutant (S127A, S397A) and luciferase reporter, compounds 0.1 μM to 30 μM; for Emax: HEK293, 24 h, read-out: TEAD-GAL4 Transactivation activity Max Act; for IC50: 24 h
Protocol: To identify inhibitors of YAP-TEAD interaction, a transient transactivation assay was carried out on HEK293 cell line (HEK293 GripTite™ 293 MSR (Invitrogen R795-07)) using plasmids containing the full length TEAD1 sequences, the full length YAP mutant (S127A, S397A) and a luciferase gene reporter. All expression constructs were performed into a pSG5 backbone plasmid in which the SV40 promoter was replaced by the CMV promoter. The TEAD1 construct was prepared by cloning the full-length human TEAD1 cDNA in fusion with the Gal4 DNA Binding Domain (AA 1-148) into pSG5_CMV to create the TEAD1 (FL)_hum_pSG5Gal4_CMV. The full-length YAP mutant (S127A, S397A) was also cloned into pSG5_CMV to create the YAP (FL)_hum_pSG5_mutS127A_S397A_CMV. The reporter plasmid GAL4(5×RE)_TK(−105/+56)_pGL3-Basic contains 5 copies of the GAL4 responsive element (5′-TCGGAGGACAGTACTCC-3′) upstream of the thymidine kinase (TK) promoter (−105/+56) inserted in a pGL3-Basic vector. To evaluate the selectivity of our compounds in blocking the YAP-TEAD interaction, a counter-screening protein-protein interaction transactivation assay was also established. Briefly, two other expression plasmids, the pBD-P53 which expresses the P53 (AA 72-390) in fusion with Gal4 and the pAD-SV40T which expresses the SV40 large T antigen (AA 84-708,AgT), were created. HEK293 cells were seeded at 5×10^4 cells/well in 96 well plates (assay plates) in DMEM medium containing 4.5 g/L D-glucose, 10% high inactivated (HI) fetal bovine serum 1% Glutamax, 1% non-essential amino acid and 1% sodium pyruvate and 0.5% penicillin/streptomycin at 37° C. in a humidified atmosphere of 8% CO2. After 24 h, transfections were performed using Jet-PEI as transfectant (101B-010 Polyplus Transfection), according to the instructions of the manufacturer (N/P=10) and a ratio YAP/TEAD=10 (per well: 50 ng of YAP(FL), 5 ng of TEAD(FL) and 50 ng of reporter plasmid). Six hours after cell transfection, the plates (‘assay plate’) were washed with 100 μl PBS per well and cells were treated with compounds in semi-log from 0.1 μM to 30 μM or DMSO 0.5% as control in DMEM, 4.5 g/L D-Glucose without phenol red, 0.3% BSA, 1% glutamax, 1% NEAA, 1% sodium pyruvate. 24 h later, the luciferase activity was determined after addition of 100 μl of Steady Glo™ luciferase assay system (Promega E2550) according to the manufacturer's directions. Luciferase activity in cell extracts was measured by reading luminescence using the Envision device.
The cellular response was determined by fitting the concentration response curves using a 3-parameter curve fit equation and determining the concentration that inhibited the luciferase activity by 50%.

T1 sequence (P28347 whole entry): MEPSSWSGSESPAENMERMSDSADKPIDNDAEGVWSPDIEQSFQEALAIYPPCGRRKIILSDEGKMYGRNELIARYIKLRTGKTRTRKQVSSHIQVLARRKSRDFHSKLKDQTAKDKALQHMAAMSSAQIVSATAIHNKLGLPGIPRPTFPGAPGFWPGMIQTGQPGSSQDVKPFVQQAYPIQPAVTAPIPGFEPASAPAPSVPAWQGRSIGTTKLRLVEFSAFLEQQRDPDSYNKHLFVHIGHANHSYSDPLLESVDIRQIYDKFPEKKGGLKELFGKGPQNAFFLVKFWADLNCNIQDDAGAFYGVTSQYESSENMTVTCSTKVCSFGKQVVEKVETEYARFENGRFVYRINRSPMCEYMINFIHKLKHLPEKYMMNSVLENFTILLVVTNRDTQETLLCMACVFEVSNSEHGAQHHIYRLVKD

| SMILES | Emax [%] | IC50 [nM] |
| --- | --- | --- |
| COCCCN(/N=C/c1ccc2c(c1)COB2O)c1ncnc2nc(SC)sc12 [Ex96, N-[(E)-(1-hydroxy-3H-2,1-benzoxaborol-5-yl)methyleneamino]-N-(3-methoxypropyl)-2-methylsulfanyl-thiazolo[4,5-d]pyrimidin-7-amine] | 87 | 100 |
| Cc1csc2c(N(CCO)/N=C/c3ccc4c(c3)COB4O)ncnc12 [Ex97, 2-[[(E)-(1-hydroxy-3H-2,1-benzoxaborol-5-yl)methyleneamino]-(7-methylthieno[3,2-d]pyrimidin-4-yl)amino]ethanol] | 79 | 660 |
| CN(/N=C/c1ccc2c(c1)COB2O)c1ncnc2c1CCC(=O)N2 [Ex100, 4-[[(E)-(1-hydroxy-3H-2,1-benzoxaborol-5-yl)methyleneamino]-methyl-amino]-6,8-dihydro-5H-pyrido[2,3-d]pyrimidin-7-one] | 85 | 1410 |
| CN(/N=C/c1ccc2c(c1)COB2O)c1ncnc2c1CCO2 [Ex101, N-[(E)-(1-hydroxy-3H-2,1-benzoxaborol-5-yl)methyleneamino]-N-methyl-5,6-dihydrofuro[2,3-d]pyrimidin-4-amine] | 94 | 900 |
| CN(/N=C/c1ccc2c(c1)COB2O)c1ncnc2c(-c3ccccc3)csc12 [Ex102, N-[(E)-(1-hydroxy-3H-2,1-benzoxaborol-5-yl)methyleneamino]-N-methyl-7-phenyl-thieno[3,2-d]pyrimidin-4-amine] | 87 | 1990 |
| CN(/N=C/c1ccc2c(c1)COB2O)c1ncnc2c(C3CC3)csc12 [Ex103, 7-cyclopropyl-N-[(E)-(1-hydroxy-3H-2,1-benzoxaborol-5-yl)methyleneamino]-N-methyl-thieno[3,2-d]pyrimidin-4-amine] | 79 | 710 |
| CN(/N=C/c1ccc2c(c1)COB2O)c1ncnc2c(N3CCOCC3)csc12 [Ex104, N-[(E)-(1-hydroxy-3H-2,1-benzoxaborol-5-yl)methyleneamino]-N-methyl-7-morpholino-thieno[3,2-d]pyrimidin-4-amine] | 79 | 1760 |
| CCc1csc2c(N(C)/N=C/c3ccc4c(c3)COB4O)ncnc12 [Ex105, 7-ethyl-N-[(E)-(1-hydroxy-3H-2,1-benzoxaborol-5-yl)methyleneamino]-N-methyl-thieno[3,2-d]pyrimidin-4-amine] | 83 | 510 |
| CN1CCc2c1ncnc2N(C)/N=C/c1ccc2c(c1)COB2O [Ex106, N-[(E)-(1-hydroxy-3H-2,1-benzoxaborol-5-yl)methyleneamino]-N,7-dimethyl-5,6-dihydropyrrolo[2,3-d]pyrimidin-4-amine] | 83 | 1060 |
| CN(/N=C/c1ccc2c(c1)COB2O)c1ncnc2c1[nH]c(=O)n2C1CCC1 [Ex107, 9-cyclobutyl-6-[[(E)-(1-hydroxy-3H-2,1-benzoxaborol-5-yl)methyleneamino]-methyl-amino]-7H-purin-8-one] | 87 | 1650 |
| COCC1CC(n2c(=O)[nH]c3c(N(C)/N=C/c4ccc5c(c4)COB5O)ncnc32)C1 (centres unmarked) [Ex108, 6-[[(E)-(1-hydroxy-3H-2,1-benzoxaborol-5-yl)methyleneamino]-methyl-amino]-9-[3-(methoxymethyl)cyclobutyl]-7H-purin-8-one] | 82 | 2590 |

Continued, values first:

| Emax [%] | IC50 [nM] | SMILES |
| --- | --- | --- |
| 86 | 1650 | CN(/N=C/c1ccc2c(c1)COB2O)c1ncnc2c1[nH]c(=O)n2C1CC(O)C1 (centres unmarked) [Ex109, 6-[[(E)-(1-hydroxy-3H-2,1-benzoxaborol-5-yl)methyleneamino]-methyl-amino]-9-(3-hydroxycyclobutyl)-7H-purin-8-one hydrochloride] |
| 83 | 1580 | CN(/N=C/c1ccc2c(c1)COB2O)c1ncnc2c1CC(=O)N2C1CCC1 [Ex111, 7-cyclobutyl-4-[[(E)-(1-hydroxy-3H-2,1-benzoxaborol-5-yl)methyleneamino]-methyl-amino]-5H-pyrrolo[2,3-d]pyrimidin-6-one] |
| 79 | 1870 | CCCNC(=O)c1csc2c(N(CC)/N=C/c3ccc4c(c3)COB4O)ncnc12 [Ex112, 4-[ethyl-[(E)-(1-hydroxy-3H-2,1-benzoxaborol-5-yl)methyleneamino]-amino]-N-propyl-thieno[3,2-d]pyrimidine-7-carboxamide] |
| 70 | 5210 | CCN(/N=C/c1ccc2c(c1)COB2O)c1ncnc2c(C(=O)N(C)C)csc12 [Ex113, 4-[ethyl-[(E)-(1-hydroxy-3H-2,1-benzoxaborol-5-yl)methyleneamino]-amino]-N,N-dimethyl-thieno[3,2-d]pyrimidine-7-carboxamide] |
| 83 | 1740 | CCCCN(CCCC)C(=O)c1csc2c(N(CC)/N=C/c3ccc4c(c3)COB4O)ncnc12 [Ex114, N,N-dibutyl-4-[ethyl-[(E)-(1-hydroxy-3H-2,1-benzoxaborol-5-yl)methyleneamino]amino]thieno[3,2-d]pyrimidine-7-carboxamide] |
| 79 | 1740 | CCN(/N=C/c1ccc2c(c1)COB2O)c1ncnc2c(C(=O)NC3COC3)csc12 [Ex115, 4-[ethyl-[(E)-(1-hydroxy-3H-2,1-benzoxaborol-5-yl)methyleneamino]amino]-N-(oxetan-3-yl)thieno[3,2-d]pyrimidine-7-carboxamide] |
| 86 | 1940 | CCN(/N=C/c1ccc2c(c1)COB2O)c1ncnc2c(C(=O)NCCCCOC)csc12 [Ex116, 4-[ethyl-[(E)-(1-hydroxy-3H-2,1-benzoxaborol-5-yl)methyleneamino]-amino]-N-(4-methoxybutyl)thieno[3,2-d]pyrimidine-7-carboxamide] |
| 82 | 690 | CC1CCC(c2ccc3c(c2)COB3O)=NN1c1ncnc2occc12 (centres unmarked) [Ex117, 4-[6-(1-hydroxy-3H-2,1-benzoxaborol-5-yl)-3-methyl-4,5-dihydro-3H-pyridazin-2-yl]furo[2,3-d]pyrimidine] |
| 80 | 720 | CC1CCC(c2ccc3c(c2)COB3O)=NN1c1ncnc2ccsc12 (centres unmarked) [Ex121, 4-[6-(1-hydroxy-3H-2,1-benzoxaborol-5-yl)-3-methyl-4,5-dihydro-3H-pyridazin-2-yl]thieno[3,2-d]pyrimidine] |
| 94 | 820 | CC1CCC(c2ccc3c(c2)COB3O)=NN1c1ncnc2c3c(sc12)CCCC3 (centres unmarked) [Ex122, 4-[6-(1-hydroxy-3H-2,1-benzoxaborol-5-yl)-3-methyl-4,5-dihydro-3H-pyridazin-2-yl]-6,7,8,9-tetrahydrobenzothiopheno[3,2-d]pyrimidine] |
| 96 | 200 | CSc1nc2ncnc(N3N=C(c4ccc5c(c4)COB5O)CCC3C)c2s1 (centres unmarked) [Ex123, 7-[6-(1-hydroxy-3H-2,1-benzoxaborol-5-yl)-3-methyl-4,5-dihydro-3H-pyridazin-2-yl]-2-methylsulfanyl-thiazolo[4,5-d]pyrimidine] |
| 83 | 700 | COCc1csc2c(N(C)/N=C/c3ccc4c(c3)COB4O)ncnc12 [Ex126, N-[(E)-(1-hydroxy-3H-2,1-benzoxaborol-5-yl)methyleneamino]-7-(methoxymethyl)-N-methyl-thieno[3,2-d]pyrimidin-4-amine] |
| 95 | 2280 | COc1ccc2c(c1)C(N(CC(C)C)/N=C/c1ccc(B(O)O)c(OC)c1)=NS2(=O)=O [Ex 2, [4-[(E)-[isobutyl-(5-methoxy-1,1-dioxo-1,2-benzothiazol-3-yl)hydrazono]methyl]-2-methoxy-phenyl]boronic acid] |
| 89 | 2610 | COc1cc(OC)c2c(c1)C(N(CC(C)C)/N=C/c1ccc(B(O)O)c(OC)c1)=NS2(=O)=O [Ex 3, [4-[(E)-[(5,7-dimethoxy-1,1-dioxo-1,2-benzothiazol-3-yl)-isobutyl-hydrazono]methyl]-2-methoxy-phenyl]boronic acid] |

From patent US11999758B2, “Inhibitors of the YAP/TAZ-TEAD interaction and their use in the treatment of cancer” (INVENTIVA, priority 2018, dated 2024)
